{
  "source": "patent EP0169785A1",
  "about": "“Use of 1,8,9-triacetoxy-anthracene as the active ingredient in the preparation of an antitumoral pharmaceutical compound” (CENTRE INTERNATIONAL DE RECHERCHES DERMATOLOGIQUES C.I.R.D. …, priority 1984, dated 1986)",
  "key": {"[1]": {"tested_on": "cellules leucémiques lymphocytiques P 388", "assay": "Anti-tumour activity against intraperitoneally implanted P 388 lymphocytic leukaemia in mice (median survival time)", "format": "in vivo, souris", "details": "for Temps médian de survie (en jours) Animaux testés T / T/C x 100: intraperitoneal; for Temps médian de survie (en jours) Animaux testés T: daily for 5 days after tumour implantation, controls C 9,9 days; for T/C x 100: active when ratio above 120", "method": "EXEMPLE 4 - Etude de l'activité anti-tumorale vis-à-vis des cellules leucémiques lymphocytiques P 388.\nLe principe du test est le suivant : On implante chez la souris, au jour zéro, une tumeur, par injection intrapéritonéale de 10^6 cellules tumorales dans 0,1 ml de fluide ascitique dilué. Le traitement consiste à administrer quotidiennement le produit étudié, par voie intrapéritonéale pendant les 5 jours suivant l'implantation de la tumeur.\nOn considère que le produit est actif selon ce test, lorsque le rapport [formula] est supérieur à 120."}, "[2]": {"tested_on": "cellules de mélanocarcinome B 16", "assay": "Anti-tumour activity against intraperitoneally implanted B 16 melanocarcinoma in mice (median survival time)", "format": "in vivo, souris", "details": "for Temps médian de survie (en jours) Animaux testés T / T/C X 100: intraperitoneal; for Temps médian de survie (en jours) Animaux testés T: daily for 9 days after tumour implantation, controls C 15,4 days; for T/C X 100: active when ratio above 125", "method": "EXEMPLE 5 - Etude de l'activité anti-tumorale vis-à-vis des cellules de mélanocarcinome B 16.\nLe principe du test est le suivant : On a implanté, chez la souris, par injection intrapériotonéale au jour 0, 0,5 ml d'un homogénéisat dilué (1/10) des cellules tumorales.\nLe traitement consiste à administrer le produit étudié, quotidiennement, par voie intrapéritonéale, pendant les 9 jours suivant l'implantation de la tumeur.\nOu considère qu'un produit est actif, selon ce test, lorsque le rapport [formula] est supérieur à 125."}, "[3]": {"assay": "Solubility (qualitative description)", "format": "physicochemical", "details": "solvents named"}},
  "data": [
    {"smiles": "CC(=O)Oc1cccc2cc3cccc(OC(C)=O)c3c(OC(C)=O)c12", "note": "[composé de formule I, triacétoxy-1,8,9 anthracène]", "values": [
      {"measurement": "Temps médian de survie (en jours) Animaux testés T", "setting": "[1]; 0,79 mg/kg", "result": "12,3 jours"},
      {"measurement": "T/C x 100", "setting": "[1]; 0,79 mg/kg, daily for 5 days", "result": 124},
      {"measurement": "Temps médian de survie (en jours) Animaux testés T", "setting": "[1]; 1,56 mg/kg", "result": "13,3 jours"},
      {"measurement": "T/C x 100", "setting": "[1]; 1,56 mg/kg, daily for 5 days", "result": 134},
      {"measurement": "Temps médian de survie (en jours) Animaux testés T", "setting": "[1]; 3,12 mg/kg", "result": 13, "unit": "jours"},
      {"measurement": "T/C x 100", "setting": "[1]; 3,12 mg/kg, daily for 5 days", "result": 131},
      {"measurement": "minimal effective dose", "setting": "[1]; Mus musculus, P388, ip, 120 h, P 388, intraperitoneal, daily for 5 days, dose at which the compound is active (T/C x 100 above 120), read-out: actif à la dose de", "result": "~0.8", "unit": "mg/kg"},
      {"measurement": "dose optimale", "setting": "[1]; P 388, intraperitoneal, daily for 5 days", "result": "~1,56 mg/kg"},
      {"measurement": "Temps médian de survie (en jours) Animaux testés T", "setting": "[2]; 0,75 mg/kg", "result": "19,7 jours"},
      {"measurement": "T/C X 100", "setting": "[2]; 0,75 mg/kg, daily for 9 days", "result": 127},
      {"measurement": "Temps médian de survie (en jours) Animaux testés T", "setting": "[2]; 3 mg/kg", "result": 20, "unit": "jours"},
      {"measurement": "T/C X 100", "setting": "[2]; 3 mg/kg, daily for 9 days", "result": 129},
      {"measurement": "Temps médian de survie (en jours) Animaux testés T", "setting": "[2]; 1,5 mg/kg", "result": 23, "unit": "jours"},
      {"measurement": "T/C X 100", "setting": "[2]; 1,5 mg/kg, daily for 9 days", "result": 149},
      {"measurement": "dose optimale", "setting": "[2]; B 16, intraperitoneal, daily for 9 days", "result": "~1,50 mg/kg"},
      {"measurement": "solubilité", "setting": "[3]", "result": "soluble notamment dans les alcools et l'acétone"}
    ]}
  ]
}
